{
  "source": "patent US20220334127A1",
  "about": "“IN VITRO METHOD FOR OBTAINING CLINICAL DATA IN PATIENTS SUFFERING FROM AN INFLAMMATORY DISEASE” (FUNDACIÓN PARA LA FORMACIÓN E INVESTIGACIÓN SANITARIAS DE …, priority 2019, published 2022)",
  "key": {"P2X7 receptor [1]": {"test_system": "P2X7 receptor", "test": "Electron microscopy of mitochondria after ATP", "assay_type": "cell-based"}, "P2X7 receptor [2]": {"test_system": "P2X7 receptor", "test": "Mitochondrial membrane depolarization (JC-10) after P2X7 receptor stimulation with ATP in monocytes and macrophages", "assay_type": "cell-based, mouse", "conditions": "ATP 3 mM", "source_text": "FIG. 5. P2X7 receptor induces mitochondrial membrane depolarization. (a) Mitochondrial membrane potential from blood monocytes stained with JC-10 in a control healthy donor (left), in a septic patient at day 1 (middle), and from healthy controls, abdominal surgery and septic patients at day 1 or 120 (right); PE^− cells represent the monocytes with mitochondrial depolarization. (b) Correlation between the percentage of monocytes with mitochondrial membrane depolarization and the quantification of P2X7 receptor MFI in monocytes from the septic patients; IC: immunocompromised septic patients. (c) Kinetics of mitochondrial depolarization after ATP (3 mM) stimulation of LPS-primed BMDMs incubated or not with the P2X7 receptor antagonist A438079 (10 μM). (d) Percentage of human monocytes from healthy donors with mitochondrial membrane depolarization after ATP (3 mM, 30 min) stimulation and incubated or not with the P2X7 receptor antagonist AZ11645373 (10 μM). […]\nMitochondrial membrane potential was measured using the JC-10 dye (Abcam) in BMDMs with a Sinergy Mx plate reader (BioTek) or by flow cytometry using the BD FACS Celesta flow cytometer (BD Biosciences), or in human monocytes (CD14^+ labelled with anti-CD14 APC-H7, clone MφP9, BD Biosciences) using FACS Canto (BD Biosciences), following the indications of manufacturer."}},
  "data": [
    {"compound": "Nc1ncnc2c1ncn2[C@@H]1O[C@H](COP(=O)(O)OP(=O)(O)OP(=O)(O)O)[C@@H](O)[C@H]1O", "note": "[ATP, adenosine triphosphate]", "values": [
      {"measurement": "damage to the mitochondria (electron microscopy)", "setting": "P2X7 receptor [1]", "result": "no damage to the mitochondria"},
      {"measurement": "mitochondrial swelling (electron microscopy)", "setting": "P2X7 receptor [1]", "result": "a swelling of the mitochondria"},
      {"measurement": "mitochondrial membrane depolarization by the agent itself", "setting": "P2X7 receptor [2]", "result": "induced"}
    ]}
  ]
}
